Data from patent US20060194969A1, “4-Substituted benzimidazoles and their uses as inhibitors of gastric secretion” (priority 2002, published 2006).

Structure (SMILES): CO[C@@H]1Cc2ccccc2[C@H]1Oc1cc(C(=O)N(C)C)cc2c1nc(C)n2C.O=C(O)C(=O)O (relative stereo) [Example 12, 4-(trans-2,3-Dihydro-2-methoxy-1-indenyloxy)-6-(N,N-dimethylaminocarbonyl)-1,2-dimethyl-1H-benzimidazole Oxalate]
- melting point: 126 to 127 °C

Structure (SMILES): Cc1nc2c(O[C@@H]3c4ccccc4C[C@H]3O)cc(C(=O)O)cc2n1C (relative stereo) [Example 16, 4-(trans-2,3-Dihydro-2-hydroxy-1-indenyloxy)-1,2-dimethyl-1H-benzimidazole-6-carboxylic Acid]
- melting point: 306 °C

Structure (SMILES): CCOC(=O)c1cc(O[C@@H]2c3c(C)ccc(C)c3C[C@H]2O)c2nc(C)n(C)c2c1 (relative stereo) [Example 20, Ethyl 4-(trans-2,3-dihydro-2-hydroxy-4,7-dimethyl-1-indenyloxy)-1,2-dimethyl-1H-benzimidazole-6-carboxylate]
- melting point: 184 °C

Structure (SMILES): Cc1ccc(C)c2c1C[C@@H](O)[C@@H]2Oc1cc(C(=O)N(C)C)cc2c1nc(C)n2C (relative stereo) [Example 22, 4-(trans-2,3-Dihydro-2-hydroxy-4,7-dimethyl-1-indenyloxy)-6-(N,N-dimethylaminocarbonyl)-1,2-dimethyl-1H-benzimidazole]
- melting point: 134 °C

Structure (SMILES): CCN(CCOC)C(=O)c1cc(O[C@@H]2c3ccccc3C[C@H]2O)c2nc(C)n(C)c2c1.O=C(O)C(=O)O (relative stereo) [Example 24, 4-(trans-2,3-Dihydro-2-hydroxy-1-indenyloxy)-6-[N-(2-methoxyethyl)-N-ethyl-amino-carbonyl]-1,2-dimethyl-1H-benzimidazole Oxalate]
- melting point: 141 °C

Structure (SMILES): Cc1nc2c(O[C@@H]3c4ccccc4C[C@H]3O)cc(C(=O)NC3CC3)cc2n1C (relative stereo) [Example 26, 6-(Cyclopropylaminocarbonyl)-4-(trans-2,3-dihydro-2-hydroxy-1-indenyloxy)-1,2-dimethyl-1H-benzimidazole]
- melting point: 148 to 149 °C

Structure (SMILES): Cc1nc2c(N[C@@H]3c4ccccc4C[C@H]3O)cc(C(=O)N(C)C)cc2n1C (relative stereo) [Example 51, 4-(trans-2,3-Dihydro-2-hydroxy-1-indenylamino)-6-(N,N-dimethylaminocarbonyl)-1,2-dimethyl-1H-benzimidazole]
- melting point: 219 to 221 °C

Structure (SMILES): Cn1c(C2CC2)nc2c(O[C@@H]3c4ccccc4C[C@H]3O)cc(C(=O)O)cc21 (relative stereo) [Example 59, 2-Cyclopropyl-4-(trans-2,3-dihydro-2-hydroxy-1-indenyloxy)-1-methyl-1H-benzimidazole-6-carboxylic acid]
- melting point: 132 to 134 °C

Structure (SMILES): CCc1cccc(C)c1COc1cc(C(=O)OC)cc2c1nc(C)n2C [Example 1, Methyl 4-(2-ethyl-6-methyl-benzyloxy)-1,2-dimethyl-1H-benzimidazole-6-carboxylate]
- melting point: 157 °C

Structure (SMILES): COC(=O)c1cc(OCc2c(C)cccc2C)c2nc(C)n(C)c2c1 [Example 3, Methyl 4-(2,6-dimethyl-benzyloxy)-1,2-dimethyl-1H-benzimidazole-6-carboxylate]
- melting point: 165 to 169 °C

Structure (SMILES): Cc1cccc(C)c1COc1cc(C(=O)O)cc2c1nc(C)n2C [Example 4, 4-(2,6-Dimethyl-benzyloxy)-1,2-dimethyl-1H-benzimidazole-6-carboxylic Acid]
- melting point: 285 to 286 °C

Structure (SMILES): Cc1nc2c(OCc3ccccc3)cc(CO)cc2n1C [Example 5, 4-Benzyloxy-6-hydroxymethyl-1,2-dimethyl-1H-benzimidazole]
- melting point: 213 to 214 °C

Structure (SMILES): COCc1cc(OCc2ccccc2)c2nc(C)n(C)c2c1 [Example 6, 4-Benzyloxy-6-methoxymethyl-1,2-dimethyl-1H-benzimidazole]
- melting point: 113 °C

Structure (SMILES): Cc1nc2c(OCc3ccccc3)cc(C(=O)N(C)C)cc2n1C [Example 7, 4-Benzyloxy-6-(N,N-dimethylaminocarbonyl)-1,2-dimethyl-1H-benzimidazole]
- melting point: 159 to 160 °C

Structure (SMILES): Cc1cccc(C)c1COc1cc(C(=O)N(C)C)cc2c1nc(C)n2C [Example 9, 6-(N,N-Dimethylaminocarbonyl)-4-(2,6-dimethyl-benzyloxy)-1,2-dimethyl-1H-benzimidazole]
- melting point: 180 °C

Structure (SMILES): CCOC(=O)c1cc(NCc2c(C)cccc2CC)c2nc(C)n(C)c2c1 [Example 27, Ethyl 4-(2-ethyl-6-methyl-benzylamino)-1,2-dimethyl-1H-benzimidazole-6-carboxylate]
- melting point: 171 to 173 °C

Structure (SMILES): CCOC(=O)c1cc(NCc2c(C)cccc2C)c2nc(C)n(C)c2c1 [Example 28, Ethyl 4-(2,6-dimethyl-benzylamino)-1,2-dimethyl-1H-benzimidazole-6-carboxylate]
- melting point: 190 °C

Structure (SMILES): CCOC(=O)c1cc(NCc2c(C)cccc2CC)c2nc(COC)n(C)c2c1 [Example 29, Ethyl 4-(2-ethyl-6-methyl-benzylamino)-2-methoxymethyl-1-methyl-1H-benzimidazole-6-carboxylate]
- melting point: 106 to 107 °C

Structure (SMILES): CCOC(=O)c1cc(NCc2c(C)cccc2C)c2nc(COC)n(C)c2c1 [Example 30, Ethyl 4-(2,6-dimethyl-benzylamino)-2-methoxymethyl-1-methyl-1H-benzimidazole-6-carboxylate]
- melting point: 134 to 135 °C

Structure (SMILES): CCc1cccc(C)c1CNc1cc(C(=O)O)cc2c1nc(C)n2C [Example 31, 4-(2-Ethyl-6-methyl-benzylamino)-1,2-dimethyl-1H-benzimidazole-6-carboxylic Acid]
- melting point: 312 to 314 °C

Structure (SMILES): Cc1cccc(C)c1CNc1cc(C(=O)O)cc2c1nc(C)n2C [Example 32, 4-(2,6-Dimethyl-benzylamino)-1,2-dimethyl-1H-benzimidazole-6-carboxylic Acid]
- melting point: 315 to 318 °C

Structure (SMILES): CCc1cccc(C)c1CNc1cc(C(=O)O)cc2c1nc(COC)n2C [Example 33, 4-(2-Ethyl-6-methyl-benzylamino)-2-methoxymethyl-1-methyl-1H-benzimidazole-6-carboxylic Acid]
- melting point: 275 to 278 °C

Structure (SMILES): COCc1nc2c(NCc3c(C)cccc3C)cc(C(=O)O)cc2n1C [Example 34, 4-(2,6-Dimethyl-benzylamino)-2-methoxymethyl-1-methyl-1H-benzimidazole-6-carboxylic Acid]
- melting point: 269 to 272 °C

Structure (SMILES): Cc1cccc(C)c1CNc1cc(C(=O)NCCO)cc2c1nc(C)n2C [Example 36, 4-(2,6-Dimethyl-benzylamino)-6-(2-hydroxyethyl-aminocarbonyl)-1,2-dimethyl-1H-benzimidazole]
- melting point: 259 to 260 °C

Structure (SMILES): COCc1nc2c(NCc3c(C)cccc3C)cc(C(=O)NCCO)cc2n1C [Example 37, 4-(2,6-Dimethyl-benzylamino)-6-(2-hydroxyethyl-aminocarbonyl)-2-methoxymethyl-1-methyl-1H-benzimidazole]
- melting point: 186 to 187 °C

Structure (SMILES): Cc1cccc(C)c1CNc1cc(C(N)=O)cc2c1nc(C)n2C [Example 39, 4-(2,6-Dimethyl-benzylamino)-1,2-dimethyl-1H-benzimidazole-6-carboxamide]
- melting point: 272 °C

Structure (SMILES): CCc1cccc(C)c1CNc1cc(C(=O)N(C)C)cc2c1nc(C)n2COCc1ccccc1.O=C(O)C(=O)O [Example 48, 1-Benzyloxymethyl-6-(N,N-dimethylaminocarbonyl)-4-(2-ethyl-6-methyl-benzylamino)-2-methyl-1H-benzimidazole Oxalate]
- melting point: 168 to 169 °C
